Earlier results on one compound are cited in paper PMC3079564 (Chemical biology & drug design, 2011).

Data set [1] relates to gp120 from the YU2 strain.
In data set [2] the test system is recombinant HIV-1 carrying HIV-1YU2 envelope glycoproteins on Cf2Th-CCR5 cells lacking CD4.

For the compound `CC1(C)CC(NC(=O)C(=O)Nc2ccc(Cl)cc2)CC(C)(C)N1` [NBD-556], in data set [1] (25 °C), the “-TΔS of binding to gp120” value is recorded as 17.1 kcal/mol and the “ΔH of binding to gp120” value is reported as -24.5 kcal/mol. Besides, in data set [1] (NBD-556), the “measured heat capacity change on binding to gp120” value is reported as -1.0 kcal/(K × mol). For the same compound, the “enhancement of viral infectivity in CD4 negative cells” value in data set [2] is on record as “three orders of magnitude”.
